# The source made the active and inactive calls.
# Tests used:
# [1] = target: T1, Nuclear receptor subfamily 0 group B member 1 (Homo sapiens, UniProt P51843); experiment: Luminescence-based cell-based high throughput dose response assay for inhibitors of the orphan nuclear receptor subfamily 0, group B, member 1 (DAX1; NR0B1). [Related pubchem assays (depositor defined):AID504766, AID504790]; format: functional
# T1 sequence (P51843 whole entry): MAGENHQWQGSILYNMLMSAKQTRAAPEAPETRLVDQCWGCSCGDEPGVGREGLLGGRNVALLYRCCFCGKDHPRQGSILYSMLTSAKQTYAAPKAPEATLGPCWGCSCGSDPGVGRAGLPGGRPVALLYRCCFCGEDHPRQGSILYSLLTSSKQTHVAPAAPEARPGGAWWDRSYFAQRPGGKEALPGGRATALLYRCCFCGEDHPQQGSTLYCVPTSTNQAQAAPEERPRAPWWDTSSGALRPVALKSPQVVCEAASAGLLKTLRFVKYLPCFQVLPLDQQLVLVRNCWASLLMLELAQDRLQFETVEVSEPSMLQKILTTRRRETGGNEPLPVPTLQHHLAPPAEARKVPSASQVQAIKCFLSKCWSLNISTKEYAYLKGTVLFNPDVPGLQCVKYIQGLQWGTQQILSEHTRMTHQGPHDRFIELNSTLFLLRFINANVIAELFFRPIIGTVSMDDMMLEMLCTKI
# HEK293 = experiment: cells; format: functional, cell-based; settings: Homo sapiens
# [2] = target: Ras and Rab interactor 1/Tyrosine-protein kinase ABL1 (Homo sapiens, UniProt P00519+Q13671); format: functional;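 note: biochemical TR-FRET dose-response test measuring inhibition of binding between Rin1 and Abl proteins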
# [3] = cAMP pathway inhibition in counterscreen cell line – TR-FRET cAMP detection, counter-screen for MC4R biased antagonist project, dose response (AID 602305); format: functional, cell-based;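 note: U2OS cells stimulated with forskolin near its EC80 as the cAMP inducer; potency is for inhibition of forskolin-stimulated cAMP signaling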
# Melanocortin receptor 4 = Melanocortin receptor 4 (Homo sapiens, UniProt P32245); experiment: inhibitors of MC4R cAMP signaling – cell-based, TR-FRET, biased antagonists, dose response (AID 602298); format: functional;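 note: antagonist potency against agonist-stimulated cAMP production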
# [4] = Counterscreen for activators of the function of SWI/SNF related, matrix associated, actin dependent regulator of chromatin, subfamily a, member 2 (SMARCA2, BRM): Luminescence-based cell-based high throughput dose response assay to identify non-selective compounds using the VP16 reporter assay.; format: functional
# [5] = target: SWI/SNF-related matrix-associated actin-dependent regulator of chromatin subfamily A member 2 (Homo sapiens, UniProt P51531); experiment: Luminescence-based cell-based high throughput dose response assay to identify activators of the function of SWI/SNF related, matrix associated, actin dependent regulator of chromatin, subfamily a, member 2 (SMARCA2, BRM).; format: functional
# [6] = target: 72 kDa type IV collagenase (Homo sapiens, UniProt P08253); experiment: Dose Response validation of uHTS RPN11 inhibitor hits using a MMP-2 Fluorescence assay.; format: functional
# [7] = target: 26S proteasome non-ATPase regulatory subunit 14 (Homo sapiens, UniProt O00487); experiment: inhibition of proteasome subunit RPN11 – biochemical, fluorescence polarization, uHTS hits, confirmation (AID 602368); format: functional
# Prothrombin = Prothrombin (Bos taurus, UniProt P00735); experiment: thrombin protease inhibitors – biochemical, fluorescence polarization, uHTS hits, dose response (AID 602369); format: functional
# [8] = target: Heat shock protein HSP 90-alpha (Homo sapiens, UniProt P07900); format: functional, organism-based
# [9] = target: Dual specificity tyrosine-phosphorylation-regulated kinase 1A (Rattus norvegicus, UniProt Q63470); format: biochemical, Homo sapiens
# [10] = target: T2, Apoptotic protease-activating factor 1 (Homo sapiens, UniProt O14727); experiment: SAR analysis of small molecule Activators of Apaf-1 in a Fluorescent assay.; format: functional; settings: read-out: EC50_Mean;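 note: caspase-3 cleavage of fluorogenic Rh110 DEVD substrate downstream of apoptosome activation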
# T2 sequence (O14727 whole entry): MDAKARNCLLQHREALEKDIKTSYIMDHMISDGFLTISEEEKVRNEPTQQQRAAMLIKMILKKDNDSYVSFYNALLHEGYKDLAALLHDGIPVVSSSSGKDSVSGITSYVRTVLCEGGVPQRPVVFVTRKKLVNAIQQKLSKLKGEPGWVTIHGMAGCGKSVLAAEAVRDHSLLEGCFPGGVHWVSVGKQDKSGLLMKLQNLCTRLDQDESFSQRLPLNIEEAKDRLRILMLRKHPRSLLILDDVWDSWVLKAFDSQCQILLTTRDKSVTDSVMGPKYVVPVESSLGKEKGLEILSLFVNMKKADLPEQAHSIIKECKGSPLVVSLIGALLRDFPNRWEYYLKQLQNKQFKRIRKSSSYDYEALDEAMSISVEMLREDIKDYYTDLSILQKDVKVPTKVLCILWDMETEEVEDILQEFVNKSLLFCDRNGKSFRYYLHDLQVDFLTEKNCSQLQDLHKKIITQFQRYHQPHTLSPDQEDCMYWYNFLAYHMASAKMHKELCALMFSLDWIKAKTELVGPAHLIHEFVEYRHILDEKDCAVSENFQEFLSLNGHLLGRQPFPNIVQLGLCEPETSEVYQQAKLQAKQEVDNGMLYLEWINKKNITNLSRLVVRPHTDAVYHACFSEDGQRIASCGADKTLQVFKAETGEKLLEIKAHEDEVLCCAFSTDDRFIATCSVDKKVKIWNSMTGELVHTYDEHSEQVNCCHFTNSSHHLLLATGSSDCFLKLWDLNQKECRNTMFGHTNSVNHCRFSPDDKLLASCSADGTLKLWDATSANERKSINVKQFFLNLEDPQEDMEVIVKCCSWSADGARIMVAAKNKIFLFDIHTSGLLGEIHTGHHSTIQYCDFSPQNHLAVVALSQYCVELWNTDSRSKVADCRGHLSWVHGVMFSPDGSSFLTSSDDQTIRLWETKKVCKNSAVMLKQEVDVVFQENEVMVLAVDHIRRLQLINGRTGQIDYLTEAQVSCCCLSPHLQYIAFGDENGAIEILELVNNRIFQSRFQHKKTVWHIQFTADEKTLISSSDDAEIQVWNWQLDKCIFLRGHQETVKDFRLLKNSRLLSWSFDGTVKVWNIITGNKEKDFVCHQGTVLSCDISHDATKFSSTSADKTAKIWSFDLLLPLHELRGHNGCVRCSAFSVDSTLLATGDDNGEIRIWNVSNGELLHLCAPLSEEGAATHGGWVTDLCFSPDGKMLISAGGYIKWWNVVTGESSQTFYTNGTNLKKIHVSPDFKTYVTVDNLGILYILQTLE
# [11] = target: Protein disulfide-isomerase (Homo sapiens, UniProt P07237); experiment: inhibition of PDI-driven insulin aggregation – biochemical, turbidity, absorbance, cherry-picked samples, dose response (AID 602350); format: functional
# Ephrin type-A receptor 4 = Ephrin type-A receptor 4 (Mus musculus, UniProt Q03137); experiment: EphA4 ligand-binding antagonists – biochemical, colorimetric, mouse EphA4, primary screen (AID 689); format: functional
# [12] = target: DNA (cytosine-5)-methyltransferase 1 (Homo sapiens, UniProt P26358); experiment: inhibition of DNA methylation by DNMT1 – biochemical, fluorescent molecular beacon, confirmation (AID 602386); format: functional
# [13] = target: Eukaryotic translation initiation factor 4E (Mus musculus, UniProt P63073); experiment: blockers of eIF4G binding by eIF4E – biochemical, TR-FRET, dose response (AID 855); format: functional;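 note: potency for disrupting eIF4E binding to eIF4GI seen as loss of FRET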
# [14] = target: T3, Rac GTPase-activating protein 1 (Homo sapiens, UniProt Q9H0H5); experiment: blockers of MgcRacGAP-driven Rac1 GTP hydrolysis – biochemical, ADP Hunter fluorescence, primary and confirmatory, confirmation (AID 624330); format: functional
# T3 sequence (Q9H0H5 whole entry): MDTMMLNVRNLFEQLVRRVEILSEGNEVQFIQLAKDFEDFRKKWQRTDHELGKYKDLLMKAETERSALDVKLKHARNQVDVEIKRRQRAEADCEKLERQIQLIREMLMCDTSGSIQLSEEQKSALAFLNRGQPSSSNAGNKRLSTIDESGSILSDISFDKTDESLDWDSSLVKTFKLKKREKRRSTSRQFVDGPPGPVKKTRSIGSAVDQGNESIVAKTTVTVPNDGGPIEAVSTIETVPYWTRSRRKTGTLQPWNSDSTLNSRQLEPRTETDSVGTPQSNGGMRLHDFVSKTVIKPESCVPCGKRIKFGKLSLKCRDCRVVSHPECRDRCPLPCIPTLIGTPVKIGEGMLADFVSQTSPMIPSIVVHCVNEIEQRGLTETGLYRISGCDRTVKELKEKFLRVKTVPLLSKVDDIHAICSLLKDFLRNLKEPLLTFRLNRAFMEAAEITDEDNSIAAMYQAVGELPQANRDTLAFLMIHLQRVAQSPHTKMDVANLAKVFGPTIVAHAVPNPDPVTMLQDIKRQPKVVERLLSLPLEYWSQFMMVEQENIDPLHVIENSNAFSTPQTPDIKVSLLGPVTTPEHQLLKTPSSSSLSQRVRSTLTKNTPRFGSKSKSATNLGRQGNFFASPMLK
# [15] = target: Induced myeloid leukemia cell differentiation protein Mcl-1 (Homo sapiens, UniProt Q07820); format: functional
# [16] = non-specific 3'UTR reporter inhibition in Clone20-Shn3RL – cell-based, Renilla luciferase, cherry-picked, counter-screen for Shn3 inhibitor project, dose response (AID 624133); format: functional
# [17] = reduction of Shn3 3'UTR-driven luciferase in osteoblasts – cell-based, Clone20 osteoblasts, firefly luciferase, cherry-picked, dose response (AID 624132); format: functional;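 note: firefly luciferase luminescence from reporter carrying the Shn3 3'UTR in osteoblasts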
# [18] = loss of viability in HepG2 cells – cell-based, CellTiter-Glo, cherry-picked, cytotoxicity control for Shn3 inhibitor project, dose response (AID 624134); format: functional
# Escherichia coli = experiment: microbe, parasite or virus in culture
# [19] = target: Serine/threonine-protein kinase Chk1 (Homo sapiens, UniProt O14757); format: functional;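 note: measured as one member of a kinome-wide kinase profiling panel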
# [20] = target: Tyrosine-protein kinase receptor TYRO3 (Homo sapiens, UniProt Q06418); format: functional;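 note: TYRO3 value obtained as one member of a kinome-wide profiling panel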
# [21] = target: Dual specificity protein kinase CLK4 (Homo sapiens, UniProt Q9HAZ1); format: functional
# [22] = target: Serine/threonine-protein kinase Nek2 (Homo sapiens, UniProt P51955); format: functional
# LIM domain kinase 1 = LIM domain kinase 1 (Homo sapiens, UniProt P53667); experiment: Navigating the Kinome. Panel member name: LIMK1; format: functional
# [23] = target: Tyrosine-protein kinase JAK2 (Homo sapiens, UniProt O60674); format: functional;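 note: JAK2 tested as one member of a kinase panel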
# [24] = target: Mitogen-activated protein kinase kinase kinase kinase 2 (Homo sapiens, UniProt Q12851); format: functional;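 note: measured as one member of a kinome-wide kinase panel, with MAP4K2 as the panel entry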
# [25] = target: Dual specificity mitogen-activated protein kinase kinase 1 (Homo sapiens, UniProt Q02750); experiment: Navigating the Kinome. Panel member name: MAP2K1; format: functional
# [26] = target: Proto-oncogene tyrosine-protein kinase receptor Ret (Homo sapiens, UniProt P07949); format: functional;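 note: measured within a kinome-wide profiling panel, RET as the panel member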
# Aurora kinase B = Aurora kinase B (Homo sapiens, UniProt Q96GD4); format: functional
# Aurora kinase A = Aurora kinase A (Homo sapiens, UniProt O14965); format: functional;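 note: value from the Navigating the Kinome kinase panel profiling, panel entry STK6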
# Aurora kinase A, sequence (O14965 whole entry): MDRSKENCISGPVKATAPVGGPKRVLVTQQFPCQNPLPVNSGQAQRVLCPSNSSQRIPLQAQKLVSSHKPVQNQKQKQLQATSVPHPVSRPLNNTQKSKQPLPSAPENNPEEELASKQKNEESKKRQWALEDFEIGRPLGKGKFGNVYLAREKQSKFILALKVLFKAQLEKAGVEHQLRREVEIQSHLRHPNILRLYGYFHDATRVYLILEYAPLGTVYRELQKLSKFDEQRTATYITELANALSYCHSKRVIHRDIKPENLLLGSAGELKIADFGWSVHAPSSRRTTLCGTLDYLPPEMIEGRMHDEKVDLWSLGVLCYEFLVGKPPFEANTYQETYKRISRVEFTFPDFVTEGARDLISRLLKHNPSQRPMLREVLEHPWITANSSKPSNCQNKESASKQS
# Melanocortin receptor 4, sequence (P32245 whole entry): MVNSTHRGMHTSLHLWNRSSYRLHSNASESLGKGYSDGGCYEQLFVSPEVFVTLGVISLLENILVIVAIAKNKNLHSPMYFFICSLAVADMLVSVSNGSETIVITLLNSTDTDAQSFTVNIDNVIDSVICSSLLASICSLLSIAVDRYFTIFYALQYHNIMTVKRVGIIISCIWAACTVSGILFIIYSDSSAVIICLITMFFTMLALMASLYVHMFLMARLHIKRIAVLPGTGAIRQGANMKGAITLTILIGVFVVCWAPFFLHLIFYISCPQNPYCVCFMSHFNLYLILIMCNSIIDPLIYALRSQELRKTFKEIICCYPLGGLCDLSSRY
# Ras and Rab interactor 1/Tyrosine-protein kinase ABL1, sequence (P00519 whole entry): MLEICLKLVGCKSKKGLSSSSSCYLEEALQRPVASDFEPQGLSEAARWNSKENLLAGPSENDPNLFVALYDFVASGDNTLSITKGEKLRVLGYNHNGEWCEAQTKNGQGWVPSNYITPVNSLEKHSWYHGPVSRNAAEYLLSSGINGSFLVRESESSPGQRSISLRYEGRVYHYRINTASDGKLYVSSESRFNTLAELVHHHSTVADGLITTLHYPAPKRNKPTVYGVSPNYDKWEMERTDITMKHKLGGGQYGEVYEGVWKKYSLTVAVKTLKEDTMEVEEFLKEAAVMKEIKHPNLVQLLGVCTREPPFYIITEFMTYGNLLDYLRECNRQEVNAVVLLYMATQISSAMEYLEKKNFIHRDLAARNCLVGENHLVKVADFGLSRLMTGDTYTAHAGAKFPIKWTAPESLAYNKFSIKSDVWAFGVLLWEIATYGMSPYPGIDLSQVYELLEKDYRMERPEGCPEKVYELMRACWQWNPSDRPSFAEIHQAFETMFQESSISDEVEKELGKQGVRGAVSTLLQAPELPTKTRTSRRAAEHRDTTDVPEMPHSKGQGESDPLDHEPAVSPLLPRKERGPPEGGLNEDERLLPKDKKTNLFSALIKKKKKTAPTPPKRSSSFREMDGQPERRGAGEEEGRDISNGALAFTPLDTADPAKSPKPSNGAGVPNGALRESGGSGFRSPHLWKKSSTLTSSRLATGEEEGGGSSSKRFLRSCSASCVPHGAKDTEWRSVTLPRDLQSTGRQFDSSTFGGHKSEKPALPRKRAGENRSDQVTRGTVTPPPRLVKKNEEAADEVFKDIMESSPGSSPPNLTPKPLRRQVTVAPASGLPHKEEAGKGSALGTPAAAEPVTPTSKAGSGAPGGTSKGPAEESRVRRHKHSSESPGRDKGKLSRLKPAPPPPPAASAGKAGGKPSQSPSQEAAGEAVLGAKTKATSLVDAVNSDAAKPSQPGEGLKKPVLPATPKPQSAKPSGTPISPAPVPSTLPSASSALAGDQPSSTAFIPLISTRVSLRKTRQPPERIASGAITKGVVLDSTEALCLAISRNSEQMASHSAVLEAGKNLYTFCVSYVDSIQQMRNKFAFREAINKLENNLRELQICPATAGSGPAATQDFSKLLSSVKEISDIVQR
# Ras and Rab interactor 1/Tyrosine-protein kinase ABL1, sequence (Q13671 whole entry): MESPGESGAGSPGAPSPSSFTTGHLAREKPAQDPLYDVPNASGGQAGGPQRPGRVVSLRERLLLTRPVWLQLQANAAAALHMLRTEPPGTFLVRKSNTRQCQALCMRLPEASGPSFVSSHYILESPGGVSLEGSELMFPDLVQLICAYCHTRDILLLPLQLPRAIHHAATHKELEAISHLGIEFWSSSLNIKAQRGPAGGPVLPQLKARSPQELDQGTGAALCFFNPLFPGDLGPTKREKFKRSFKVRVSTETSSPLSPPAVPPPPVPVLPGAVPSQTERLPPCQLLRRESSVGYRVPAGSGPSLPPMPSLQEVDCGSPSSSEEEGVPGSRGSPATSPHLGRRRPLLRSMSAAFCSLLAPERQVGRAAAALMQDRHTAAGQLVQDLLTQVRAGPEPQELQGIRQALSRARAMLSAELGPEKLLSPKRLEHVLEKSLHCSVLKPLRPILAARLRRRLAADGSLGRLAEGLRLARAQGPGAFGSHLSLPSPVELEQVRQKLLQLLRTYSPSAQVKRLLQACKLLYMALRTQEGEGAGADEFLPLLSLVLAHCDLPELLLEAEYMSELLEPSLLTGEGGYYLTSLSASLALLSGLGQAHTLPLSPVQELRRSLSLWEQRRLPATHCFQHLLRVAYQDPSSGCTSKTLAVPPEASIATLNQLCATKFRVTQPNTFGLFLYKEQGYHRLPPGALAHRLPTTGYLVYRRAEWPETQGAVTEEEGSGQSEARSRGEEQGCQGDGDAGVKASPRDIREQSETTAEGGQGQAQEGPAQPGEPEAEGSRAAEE
# Serine/threonine-protein kinase Nek2, sequence (P51955 whole entry, the tested form may be a part): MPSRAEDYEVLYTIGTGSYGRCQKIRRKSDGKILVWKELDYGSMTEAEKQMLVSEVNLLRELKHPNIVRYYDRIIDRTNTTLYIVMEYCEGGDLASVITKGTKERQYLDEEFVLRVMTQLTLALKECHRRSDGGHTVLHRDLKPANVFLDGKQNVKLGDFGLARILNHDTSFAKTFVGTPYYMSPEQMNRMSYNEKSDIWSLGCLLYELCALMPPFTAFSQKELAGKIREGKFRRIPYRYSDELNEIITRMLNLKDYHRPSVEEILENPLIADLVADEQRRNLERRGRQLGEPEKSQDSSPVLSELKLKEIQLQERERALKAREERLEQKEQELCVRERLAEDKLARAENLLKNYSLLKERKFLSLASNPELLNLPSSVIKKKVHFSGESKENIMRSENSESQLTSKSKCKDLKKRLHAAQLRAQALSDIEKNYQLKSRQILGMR
# Aurora kinase B, sequence (Q96GD4 whole entry): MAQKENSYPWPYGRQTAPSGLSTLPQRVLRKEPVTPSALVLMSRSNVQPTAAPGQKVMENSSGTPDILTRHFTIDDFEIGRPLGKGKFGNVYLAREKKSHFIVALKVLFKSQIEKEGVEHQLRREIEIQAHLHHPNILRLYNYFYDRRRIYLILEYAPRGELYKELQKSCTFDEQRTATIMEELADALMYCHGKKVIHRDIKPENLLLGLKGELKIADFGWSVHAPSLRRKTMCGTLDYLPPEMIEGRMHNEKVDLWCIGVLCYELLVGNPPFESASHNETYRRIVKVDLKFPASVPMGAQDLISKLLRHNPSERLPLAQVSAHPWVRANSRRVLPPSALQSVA
# LIM domain kinase 1, sequence (P53667 whole entry, the tested form may be a part): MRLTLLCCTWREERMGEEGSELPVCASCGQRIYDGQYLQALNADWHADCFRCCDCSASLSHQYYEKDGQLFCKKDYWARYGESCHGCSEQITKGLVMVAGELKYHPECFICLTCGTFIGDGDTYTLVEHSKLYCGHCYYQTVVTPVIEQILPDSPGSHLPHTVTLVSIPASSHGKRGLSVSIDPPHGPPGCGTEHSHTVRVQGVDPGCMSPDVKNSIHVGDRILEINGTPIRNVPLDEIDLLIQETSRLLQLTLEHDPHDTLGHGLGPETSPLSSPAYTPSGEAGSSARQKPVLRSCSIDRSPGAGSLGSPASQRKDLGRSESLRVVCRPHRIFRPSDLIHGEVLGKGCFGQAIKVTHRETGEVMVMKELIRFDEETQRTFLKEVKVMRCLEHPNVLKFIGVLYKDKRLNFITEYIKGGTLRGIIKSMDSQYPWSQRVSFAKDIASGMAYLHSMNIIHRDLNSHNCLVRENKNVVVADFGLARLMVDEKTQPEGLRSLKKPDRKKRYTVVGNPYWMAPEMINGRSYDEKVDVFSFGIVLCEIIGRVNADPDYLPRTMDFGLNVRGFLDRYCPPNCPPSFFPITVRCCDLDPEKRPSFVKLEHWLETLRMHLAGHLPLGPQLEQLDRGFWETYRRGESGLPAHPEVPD
# Serine/threonine-protein kinase Chk1, sequence (O14757 whole entry): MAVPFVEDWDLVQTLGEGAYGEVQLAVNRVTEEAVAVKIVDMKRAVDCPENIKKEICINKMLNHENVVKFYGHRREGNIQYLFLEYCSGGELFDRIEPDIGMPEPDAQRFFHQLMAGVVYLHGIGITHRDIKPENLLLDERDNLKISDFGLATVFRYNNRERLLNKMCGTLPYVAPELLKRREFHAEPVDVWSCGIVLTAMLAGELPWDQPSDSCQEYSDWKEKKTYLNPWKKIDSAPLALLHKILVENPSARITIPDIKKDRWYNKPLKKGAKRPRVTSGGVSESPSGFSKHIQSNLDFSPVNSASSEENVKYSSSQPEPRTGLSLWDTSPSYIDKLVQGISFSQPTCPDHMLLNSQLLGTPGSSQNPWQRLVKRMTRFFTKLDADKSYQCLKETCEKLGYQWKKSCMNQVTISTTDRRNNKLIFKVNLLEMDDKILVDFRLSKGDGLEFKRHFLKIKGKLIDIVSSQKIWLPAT
# Dual specificity mitogen-activated protein kinase kinase 1, sequence (Q02750 whole entry): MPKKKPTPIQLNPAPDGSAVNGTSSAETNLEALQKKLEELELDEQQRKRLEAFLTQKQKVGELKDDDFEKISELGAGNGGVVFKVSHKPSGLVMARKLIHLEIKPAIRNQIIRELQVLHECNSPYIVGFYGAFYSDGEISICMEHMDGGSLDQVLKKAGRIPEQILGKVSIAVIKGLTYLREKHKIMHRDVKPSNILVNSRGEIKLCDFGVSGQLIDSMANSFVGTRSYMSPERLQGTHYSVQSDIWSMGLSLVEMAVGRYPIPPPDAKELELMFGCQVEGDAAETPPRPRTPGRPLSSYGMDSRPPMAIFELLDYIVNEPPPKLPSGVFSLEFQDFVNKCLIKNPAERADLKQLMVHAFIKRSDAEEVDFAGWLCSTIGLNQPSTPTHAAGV
structure (smiles),measurement,setting,value
Cc1cc(Cl)ccc1Nc1ncccc1C(N)=O,IC50,[1],> 67.5 µM (inactive)
same,IC50,HEK293,> 67.5 µM (inactive)
Cc1oc2nc(SCCCC(=O)NCCO)nc(N)c2c1C,IC50,[2],6.46 µM (active)
O=C(C[S+]([O-])c1ccc(C(F)(F)F)cc1[N+](=O)[O-])Oc1ccc(Cl)cc1 (stereo not given),IC50,[3],> 64.6 µM (inactive)
same,IC50,Melanocortin receptor 4,> 64.6 µM (inactive)
same,EC50,[4],> 91.2 µM (inactive)
same,EC50,[5],> 91.2 µM (inactive)
O=C(NN1C(=O)/C(=C\c2ccc(O)c([N+](=O)[O-])c2)SC1=S)c1ccccc1Cl,IC50,[6],31.1 µM (active)
same,IC50,[7],26.8 µM (active)
same,IC50,Prothrombin,62.5 µM (active)
same,AC50,[8],5.26 µM (active)
same,AC50,[9],3.01 µM (active)
Cc1ccc(N2C(=O)[C@@H]3C(c4ccc(F)cc4)=NO[C@@H]3C2=O)cc1,EC50,[10],> 100 µM (inactive)
COc1cccc(CNC(=O)CCNS(=O)(=O)c2cccc3nsnc23)c1,IC50,[1],> 67.5 µM (inactive)
same,IC50,HEK293,> 67.5 µM (inactive)
O=C(c1ccco1)N1CCN(Cc2cc(=O)oc3cc(O)ccc23)CC1,AC50,[11],19.5 µM (active)
C=CCOC(=O)c1cc(-c2ccc(/C=C3\C(=O)NC(=O)C(C#N)=C3C)o2)ccc1Cl,IC50,Ephrin type-A receptor 4,1.45 µM (active)
same,IC50,[12],5 µM (active)
same,IC50,[13],12.8 µM (active)
same,IC50,[14],229 µM (active)
same,IC50,[15],1.2 µM (active)
CCCCCCCN(c1ccccc1)[C@@H]1C[C@H]2CCCC(=O)N3CC[C@@H](C1)[C@@H]23,IC50,[3],22.6 µM (inactive)
same,AC50,[16],4.54 µM (active)
same,AC50,[17],11.4 µM (active)
same,IC50,Melanocortin receptor 4,7.91 µM (active)
same,AC50,[18],46.4 µM (active)
same,AC50,Escherichia coli,13.7 µM (active)
COc1cc(-c2ccc(=O)n(Cc3cccc(C)c3)n2)cc(OC)c1OC,Ki,[19],1 µM (active)
same,Ki,[20],2.51 µM (active)
same,Ki,[21],2 µM (active)
same,Ki,[22],3.16 µM (active)
same,Ki,LIM domain kinase 1,1 µM (active)
O=C1CN=C(c2ccc(F)cc2)c2cn[nH]c2N1,Ki,[23],100 µM (active)
same,Ki,[24],63.1 µM (active)
same,Ki,[25],79.4 µM (active)
same,Ki,[26],79.4 µM (active)
COc1ccc(-c2cnnc(N/N=C/c3ccc(O)c(O)c3)n2)cc1,IC50,[14],63.9 µM (active)
same,AC50,[9],0.482 µM (active)
Nc1ccc(-c2csc3ccnc(N)c23)cc1,Ki,Aurora kinase B,0.2 µM (active)
same,Ki,Aurora kinase A,1.26 µM (active)
